Laboratory results reported in ChEMBL document CHEMBL5465560, “Selectivity Literature for EUbOPEN Chemogenomic Library” (2024).
One block for each compound: values may come before it.

What was measured:
[1] = target: Homeodomain-interacting protein kinase 3 (Homo sapiens, UniProt Q9H422); experiment: Selectivity interaction (Eurofins kinase panel) EUB0000008b HIPK3; conditions: at 1 µM
[2] = target: T1, Glycogen synthase kinase-3 alpha (Homo sapiens, UniProt P49840); experiment: Selectivity interaction (Eurofins kinase panel) EUB0000008b GSK3A; conditions: at 1 µM
[3] = target: T2, Homeodomain-interacting protein kinase 2 (Homo sapiens, UniProt Q9H2X6); experiment: Selectivity interaction (Eurofins kinase panel) EUB0000008b HIPK2; conditions: at 1 µM
Target sequence in this assay (Q9H2X6 whole entry, looked up): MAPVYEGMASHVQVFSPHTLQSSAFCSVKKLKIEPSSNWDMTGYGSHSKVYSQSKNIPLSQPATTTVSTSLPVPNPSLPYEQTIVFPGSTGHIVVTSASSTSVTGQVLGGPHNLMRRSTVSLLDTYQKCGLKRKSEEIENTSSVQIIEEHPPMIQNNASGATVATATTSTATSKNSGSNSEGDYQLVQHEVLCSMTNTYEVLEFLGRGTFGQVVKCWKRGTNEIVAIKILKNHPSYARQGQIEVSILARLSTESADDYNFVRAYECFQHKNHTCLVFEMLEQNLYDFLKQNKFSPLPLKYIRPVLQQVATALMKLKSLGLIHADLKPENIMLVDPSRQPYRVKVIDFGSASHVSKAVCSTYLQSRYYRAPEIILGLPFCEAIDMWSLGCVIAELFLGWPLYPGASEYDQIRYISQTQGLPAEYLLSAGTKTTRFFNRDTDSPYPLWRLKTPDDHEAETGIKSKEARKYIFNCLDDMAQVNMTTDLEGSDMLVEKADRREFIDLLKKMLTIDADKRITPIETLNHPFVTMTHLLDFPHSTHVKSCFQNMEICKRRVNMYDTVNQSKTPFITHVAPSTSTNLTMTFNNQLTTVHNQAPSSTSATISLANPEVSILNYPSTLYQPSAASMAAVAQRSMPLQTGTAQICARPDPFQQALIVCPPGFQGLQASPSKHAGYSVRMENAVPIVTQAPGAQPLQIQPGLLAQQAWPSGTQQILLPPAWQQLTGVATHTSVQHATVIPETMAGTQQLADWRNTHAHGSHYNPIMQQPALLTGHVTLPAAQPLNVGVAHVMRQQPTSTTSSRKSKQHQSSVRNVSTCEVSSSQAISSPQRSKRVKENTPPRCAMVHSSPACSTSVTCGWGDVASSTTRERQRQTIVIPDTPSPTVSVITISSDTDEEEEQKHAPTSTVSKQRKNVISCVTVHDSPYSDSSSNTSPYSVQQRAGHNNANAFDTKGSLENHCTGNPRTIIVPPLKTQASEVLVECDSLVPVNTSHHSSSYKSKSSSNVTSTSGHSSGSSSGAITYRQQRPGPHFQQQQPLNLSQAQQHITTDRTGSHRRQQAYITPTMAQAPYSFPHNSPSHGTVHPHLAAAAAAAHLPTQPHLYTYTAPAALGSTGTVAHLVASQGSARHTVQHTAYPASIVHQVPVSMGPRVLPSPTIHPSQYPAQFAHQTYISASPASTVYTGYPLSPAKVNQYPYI

[4] = target: T2, Homeodomain-interacting protein kinase 2; experiment: Selectivity interaction (Eurofins binding assay) EUB0000008b HIPK2
Target sequence in this assay (Q9H2X6 whole entry): as the sequence (Q9H2X6 whole entry, looked up) above

[5] = target: Homeodomain-interacting protein kinase 4 (Homo sapiens, UniProt Q8NE63); experiment: Selectivity interaction (NanoBRET assay (using HEK293T cells)) EUB0000008b HIPK4; assay type: cell-based, HEK-293T
[6] = target: T2, Homeodomain-interacting protein kinase 2; experiment: Selectivity interaction (NanoBRET assay (using HEK293T cells)) EUB0000008b HIPK2; assay type: cell-based, HEK-293T
Target sequence in this assay (Q9H2X6 whole entry): as the sequence (Q9H2X6 whole entry, looked up) above

[7] = target: CDK1/Cyclin E (Homo sapiens) (UniProt P06493+P24864+O96020); experiment: Selectivity interaction (KinaseProfilerTM (Merck Millipore) ) EUB0001631a CDK1; assay type: protein-complex assay; conditions: at 10 µM
[8] = target: CDK9/Cyclin K (Homo sapiens) (UniProt P50750+O75909); experiment: Selectivity interaction (NanoBRET assay in HEK293T cells) EUB0001631a CDK9; assay type: cell-based; conditions: HEK-293T, at 10 µM
[9] = target: Mast/stem cell growth factor receptor Kit (Homo sapiens, UniProt P10721); experiment: Selectivity interaction (KinaseProfilerTM (Merck Millipore) ) EUB0001631a KIT; conditions: at 10 µM
[10] = target: Cyclin-dependent kinase 2/cyclin E (Homo sapiens) (UniProt P24864+P24941+O96020); experiment: Selectivity interaction (KinaseProfilerTM (Merck Millipore) ) EUB0001631a CDK2; assay type: protein-complex assay; conditions: at 10 µM
[11] = target: T1, Glycogen synthase kinase-3 alpha; experiment: Selectivity interaction (KinaseProfilerTM (Merck Millipore) ) EUB0001631a GSK3A; conditions: at 10 µM
[12] = target: Cyclin-Y/Cyclin-dependent kinase 16 (Homo sapiens) (UniProt Q00536+Q8ND76); experiment: Selectivity interaction (NanoBRET assay in HEK293T cells) EUB0001631a CDK16; assay type: cell-based; conditions: HEK-293T, at 10 µM
[13] = target: T3, Ephrin type-A receptor 1 (Homo sapiens) (UniProt P21709); experiment: Selectivity interaction (KinaseProfilerTM (Merck Millipore) ) EUB0001631a EPHA1; conditions: at 10 µM
T3 sequence (whole entry): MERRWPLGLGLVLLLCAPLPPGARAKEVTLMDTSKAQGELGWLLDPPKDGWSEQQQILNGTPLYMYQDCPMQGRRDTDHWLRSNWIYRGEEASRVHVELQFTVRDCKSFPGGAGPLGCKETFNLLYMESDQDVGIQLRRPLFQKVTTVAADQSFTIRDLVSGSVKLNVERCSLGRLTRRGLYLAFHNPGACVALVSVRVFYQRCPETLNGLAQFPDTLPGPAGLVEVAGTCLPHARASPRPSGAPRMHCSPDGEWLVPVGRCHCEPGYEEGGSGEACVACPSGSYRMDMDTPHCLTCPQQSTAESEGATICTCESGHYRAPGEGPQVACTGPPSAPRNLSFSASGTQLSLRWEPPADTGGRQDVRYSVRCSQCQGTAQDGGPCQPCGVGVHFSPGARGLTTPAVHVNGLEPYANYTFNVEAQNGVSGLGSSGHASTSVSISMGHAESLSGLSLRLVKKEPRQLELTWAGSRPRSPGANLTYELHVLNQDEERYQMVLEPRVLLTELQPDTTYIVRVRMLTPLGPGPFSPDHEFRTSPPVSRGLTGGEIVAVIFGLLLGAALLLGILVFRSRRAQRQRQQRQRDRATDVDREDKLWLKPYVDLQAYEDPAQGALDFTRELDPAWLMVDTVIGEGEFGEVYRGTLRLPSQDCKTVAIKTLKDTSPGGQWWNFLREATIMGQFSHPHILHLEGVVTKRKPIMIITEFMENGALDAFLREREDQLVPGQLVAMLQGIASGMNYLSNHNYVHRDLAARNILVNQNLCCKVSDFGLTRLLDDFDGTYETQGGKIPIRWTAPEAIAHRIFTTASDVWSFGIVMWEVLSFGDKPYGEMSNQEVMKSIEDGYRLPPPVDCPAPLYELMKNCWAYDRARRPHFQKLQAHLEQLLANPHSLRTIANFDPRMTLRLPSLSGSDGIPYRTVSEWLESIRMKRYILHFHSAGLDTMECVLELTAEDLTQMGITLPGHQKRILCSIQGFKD

[14] = target: CDK20/Cyclin H (Homo sapiens) (UniProt P51946+Q8IZL9); experiment: Selectivity interaction (NanoBRET assay in HEK293T cells) EUB0001631a CDK20; assay type: cell-based; conditions: HEK-293T, at 10 µM
[15] = target: CDK11A/Cyclin L2 (Homo sapiens) (UniProt Q9UQ88+Q96S94); experiment: Selectivity interaction (NanoBRET assay in HEK293T cells) EUB0001631a CDK11A; assay type: cell-based; conditions: HEK-293T, at 10 µM
[16] = target: Tyrosine-protein kinase Fyn (Homo sapiens) (UniProt P06241); experiment: Selectivity interaction (KinaseProfilerTM (Merck Millipore) ) EUB0001631a FYN; conditions: at 10 µM
[17] = target: Cyclin-C/Cyclin-dependent kinase 19 (Homo sapiens) (UniProt Q9BWU1+P24863); experiment: Selectivity interaction (NanoBRET assay in HEK293T cells) EUB0001631a CDK19; assay type: cell-based; conditions: HEK-293T, at 10 µM
[18] = target: CDK3/Cyclin E (Homo sapiens) (UniProt P24864+Q00526); experiment: Selectivity interaction (NanoBRET assay in HEK293T cells) EUB0001631a CDK3; assay type: cell-based; conditions: HEK-293T, at 10 µM
[19] = target: Cyclin-dependent kinase 7 (Homo sapiens, UniProt P50613); experiment: Selectivity interaction (NanoBRET assay in HEK293T cells) EUB0001631a CDK7; assay type: cell-based; conditions: HEK-293T, at 10 µM
[20] = target: CDK10/Cyclin L2 (Homo sapiens) (UniProt Q15131+Q96S94); experiment: Selectivity interaction (NanoBRET assay in HEK293T cells) EUB0001631a CDK10; assay type: cell-based; conditions: HEK-293T, at 10 µM
[21] = target: High affinity nerve growth factor receptor (Homo sapiens, UniProt P04629); experiment: Selectivity interaction (KinaseProfilerTM (Merck Millipore) ) EUB0001631a NTRK1; conditions: at 10 µM
[22] = target: Cyclin-dependent kinase 13/Cyclin-K (Homo sapiens) (UniProt Q14004+O75909); experiment: Selectivity interaction (NanoBRET assay in HEK293T cells) EUB0001631a CDK13; assay type: cell-based; conditions: HEK-293T, at 10 µM
[23] = target: CDK18/Cyclin Y (Homo sapiens) (UniProt Q07002+Q8ND76); experiment: Selectivity interaction (NanoBRET assay in HEK293T cells) EUB0001631a CDK18; assay type: cell-based; conditions: HEK-293T, at 10 µM
[24] = target: Cyclin-dependent kinase 2/cyclin E1 (Homo sapiens) (UniProt P24864+P24941); experiment: Selectivity interaction (NanoBRET assay in HEK293T cells) EUB0001631a CDK2; assay type: cell-based; conditions: HEK-293T, at 10 µM
[25] = target: CDK17/Cyclin-Y (Homo sapiens) (UniProt Q00537+Q8ND76); experiment: Selectivity interaction (NanoBRET assay in HEK293T cells) EUB0001631a CDK17; assay type: cell-based; conditions: HEK-293T, at 10 µM
[26] = target: CDK8/Cyclin C (Homo sapiens) (UniProt P49336+P24863); experiment: Selectivity interaction (NanoBRET assay in HEK293T cells) EUB0001631a CDK8; assay type: cell-based; conditions: HEK-293T, at 10 µM
[27] = target: CDK6/cyclin D1 (Homo sapiens) (UniProt P24385+Q00534); experiment: Selectivity interaction (NanoBRET assay in HEK293T cells) EUB0001631a CDK6; assay type: cell-based; conditions: HEK-293T, at 10 µM
[28] = target: Cyclin-dependent kinase 4/cyclin D1 (Homo sapiens) (UniProt P11802+P24385); experiment: Selectivity interaction (NanoBRET assay in HEK293T cells) EUB0001631a CDK4; assay type: cell-based; conditions: HEK-293T, at 10 µM
[29] = target: Vascular endothelial growth factor receptor 3 (Homo sapiens, UniProt P35916); experiment: Selectivity interaction (KinaseProfilerTM (Merck Millipore) ) EUB0001631a FLT4; conditions: at 10 µM
[30] = target: CDK12/Cyclin K (Homo sapiens) (UniProt O75909+Q9NYV4); experiment: Selectivity interaction (NanoBRET assay in HEK293T cells) EUB0001631a CDK12; assay type: cell-based; conditions: HEK-293T, at 10 µM
[31] = target: CDK1/Cyclin E (Homo sapiens) (UniProt P06493+P24864); experiment: Selectivity interaction (NanoBRET assay in HEK293T cells) EUB0001631a CDK1; assay type: cell-based; conditions: HEK-293T, at 10 µM
[32] = target: Cyclin-dependent kinase 14/Cyclin-Y (Homo sapiens) (UniProt O94921+Q8ND76); experiment: Selectivity interaction (NanoBRET assay in HEK293T cells) EUB0001631a CDK14; assay type: cell-based; conditions: HEK-293T, at 10 µM
[33] = target: CDK3/cyclin E (Homo sapiens) (UniProt P24864+O96020+Q00526); experiment: Selectivity interaction (KinaseProfilerTM (Merck Millipore) ) EUB0001631a CDK3; assay type: protein-complex assay; conditions: at 10 µM
[34] = target: CDK15/Cyclin Y (Homo sapiens) (UniProt Q96Q40+Q8ND76); experiment: Selectivity interaction (NanoBRET assay in HEK293T cells) EUB0001631a CDK15; assay type: cell-based; conditions: HEK-293T, at 10 µM
[35] = target: CDK11B/Cyclin L2 (Homo sapiens) (UniProt P21127+Q96S94); experiment: Selectivity interaction (NanoBRET assay in HEK293T cells) EUB0001631a CDK11B; assay type: cell-based; conditions: HEK-293T, at 10 µM
[36] = target: Glycogen synthase kinase-3 beta (Homo sapiens, UniProt P49841); experiment: Selectivity interaction (KinaseProfilerTM (Merck Millipore) ) EUB0001631a GSK3B; conditions: at 10 µM
[37] = target: T4, Cyclin-dependent kinase 5/CDK5 activator 1 (Homo sapiens) (UniProt Q00535+Q15078); experiment: Selectivity interaction (KinaseProfilerTM (Merck Millipore) ) EUB0001631a CDK5; assay type: protein-complex assay; conditions: at 10 µM
[38] = target: T4, Cyclin-dependent kinase 5/CDK5 activator 1 (Homo sapiens); experiment: Selectivity interaction (NanoBRET assay in HEK293T cells) EUB0001631a CDK5; assay type: cell-based; conditions: HEK-293T, at 10 µM

T1 sequence (P49840 2-483 limits assumed): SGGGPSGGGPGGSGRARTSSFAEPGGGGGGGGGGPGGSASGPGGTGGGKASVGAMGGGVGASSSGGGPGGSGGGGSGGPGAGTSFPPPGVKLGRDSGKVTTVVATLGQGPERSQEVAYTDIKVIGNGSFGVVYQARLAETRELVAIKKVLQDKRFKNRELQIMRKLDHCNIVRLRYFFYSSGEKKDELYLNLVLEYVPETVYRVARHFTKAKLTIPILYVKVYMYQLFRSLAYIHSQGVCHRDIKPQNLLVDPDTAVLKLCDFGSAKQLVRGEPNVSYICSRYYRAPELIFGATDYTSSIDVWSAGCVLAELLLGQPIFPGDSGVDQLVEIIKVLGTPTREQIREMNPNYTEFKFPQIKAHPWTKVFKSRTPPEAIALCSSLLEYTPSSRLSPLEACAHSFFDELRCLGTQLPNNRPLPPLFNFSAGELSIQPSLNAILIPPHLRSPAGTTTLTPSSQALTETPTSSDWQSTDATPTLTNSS
T4 sequence (Q00535 whole entry): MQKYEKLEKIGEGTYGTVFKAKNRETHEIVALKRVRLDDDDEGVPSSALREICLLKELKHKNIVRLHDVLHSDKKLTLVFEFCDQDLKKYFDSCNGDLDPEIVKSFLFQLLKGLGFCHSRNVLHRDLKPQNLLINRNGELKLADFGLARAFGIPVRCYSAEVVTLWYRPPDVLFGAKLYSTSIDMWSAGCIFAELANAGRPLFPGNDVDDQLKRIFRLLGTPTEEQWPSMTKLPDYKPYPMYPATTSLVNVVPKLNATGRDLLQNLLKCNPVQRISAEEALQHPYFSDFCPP
T4 sequence (Q15078 99-307 partner limits assumed): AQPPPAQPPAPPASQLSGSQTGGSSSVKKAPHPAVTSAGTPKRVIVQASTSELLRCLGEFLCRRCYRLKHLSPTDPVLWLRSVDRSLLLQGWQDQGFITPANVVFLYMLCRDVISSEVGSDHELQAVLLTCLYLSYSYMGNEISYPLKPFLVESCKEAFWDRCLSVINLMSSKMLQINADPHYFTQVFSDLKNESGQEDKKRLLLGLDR
Sequence of CDK17/Cyclin-Y (Homo sapiens) (Q00537 whole entry): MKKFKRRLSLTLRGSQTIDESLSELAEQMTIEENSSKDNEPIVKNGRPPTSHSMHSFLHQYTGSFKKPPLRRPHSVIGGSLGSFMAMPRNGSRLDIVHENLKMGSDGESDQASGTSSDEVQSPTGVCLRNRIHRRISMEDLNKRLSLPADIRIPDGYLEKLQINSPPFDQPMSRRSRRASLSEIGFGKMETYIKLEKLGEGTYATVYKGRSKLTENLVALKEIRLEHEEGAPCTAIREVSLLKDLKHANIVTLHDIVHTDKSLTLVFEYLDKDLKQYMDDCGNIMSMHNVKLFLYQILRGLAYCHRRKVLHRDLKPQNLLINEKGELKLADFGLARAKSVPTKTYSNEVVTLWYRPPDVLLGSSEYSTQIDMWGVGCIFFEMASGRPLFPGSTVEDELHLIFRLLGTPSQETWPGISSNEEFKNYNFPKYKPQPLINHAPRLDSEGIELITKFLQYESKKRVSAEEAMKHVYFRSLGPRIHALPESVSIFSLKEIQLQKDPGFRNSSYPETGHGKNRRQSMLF
Sequence of CDK17/Cyclin-Y (Homo sapiens) (Q8ND76 2-341 partner limits assumed): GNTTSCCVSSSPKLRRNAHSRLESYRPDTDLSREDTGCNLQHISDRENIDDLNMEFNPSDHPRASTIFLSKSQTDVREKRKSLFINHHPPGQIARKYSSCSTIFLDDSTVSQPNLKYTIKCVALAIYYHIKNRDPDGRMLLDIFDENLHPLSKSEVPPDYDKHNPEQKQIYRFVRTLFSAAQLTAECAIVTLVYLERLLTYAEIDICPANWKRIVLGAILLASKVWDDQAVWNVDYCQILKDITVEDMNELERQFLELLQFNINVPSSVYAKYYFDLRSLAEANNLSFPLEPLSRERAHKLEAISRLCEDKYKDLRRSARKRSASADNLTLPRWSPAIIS
Sequence of Glycogen synthase kinase-3 beta (P49841 whole entry, looked up): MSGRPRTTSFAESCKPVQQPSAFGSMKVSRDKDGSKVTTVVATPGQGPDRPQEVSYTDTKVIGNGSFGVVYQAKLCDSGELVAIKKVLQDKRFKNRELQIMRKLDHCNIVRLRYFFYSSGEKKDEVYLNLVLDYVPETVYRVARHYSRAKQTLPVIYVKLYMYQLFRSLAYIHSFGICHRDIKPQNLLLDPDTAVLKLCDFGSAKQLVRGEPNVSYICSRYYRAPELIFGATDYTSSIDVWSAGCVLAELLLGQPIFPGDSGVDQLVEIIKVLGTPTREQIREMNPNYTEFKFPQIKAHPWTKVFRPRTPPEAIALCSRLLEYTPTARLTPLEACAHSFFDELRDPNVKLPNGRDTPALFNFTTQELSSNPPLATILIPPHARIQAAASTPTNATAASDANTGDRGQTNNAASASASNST
Sequence of Tyrosine-protein kinase Fyn (Homo sapiens) (P06241 2-537 limits assumed): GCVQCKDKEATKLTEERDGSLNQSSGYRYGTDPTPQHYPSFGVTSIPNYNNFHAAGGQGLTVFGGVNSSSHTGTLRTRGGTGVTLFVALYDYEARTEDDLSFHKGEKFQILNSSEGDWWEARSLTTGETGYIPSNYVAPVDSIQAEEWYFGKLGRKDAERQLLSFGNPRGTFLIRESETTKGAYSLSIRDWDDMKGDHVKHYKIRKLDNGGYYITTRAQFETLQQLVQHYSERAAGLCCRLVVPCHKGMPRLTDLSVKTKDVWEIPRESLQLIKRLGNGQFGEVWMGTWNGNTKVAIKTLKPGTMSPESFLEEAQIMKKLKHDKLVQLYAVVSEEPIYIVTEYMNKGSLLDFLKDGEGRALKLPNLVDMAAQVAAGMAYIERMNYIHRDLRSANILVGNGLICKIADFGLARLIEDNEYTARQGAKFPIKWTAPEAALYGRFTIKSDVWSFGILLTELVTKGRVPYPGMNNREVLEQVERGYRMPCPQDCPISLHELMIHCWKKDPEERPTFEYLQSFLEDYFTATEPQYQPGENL
Sequence of CDK1/Cyclin E (Homo sapiens) (UniProt P06493+P24864) (P06493 whole entry, looked up): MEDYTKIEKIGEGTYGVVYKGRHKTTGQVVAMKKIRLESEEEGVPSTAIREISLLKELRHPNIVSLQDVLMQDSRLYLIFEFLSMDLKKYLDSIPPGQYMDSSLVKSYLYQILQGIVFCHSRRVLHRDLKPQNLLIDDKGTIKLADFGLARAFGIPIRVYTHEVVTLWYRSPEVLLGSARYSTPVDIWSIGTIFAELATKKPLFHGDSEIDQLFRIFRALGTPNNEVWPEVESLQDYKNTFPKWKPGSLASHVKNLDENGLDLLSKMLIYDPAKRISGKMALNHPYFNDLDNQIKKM
Sequence of CDK1/Cyclin E (Homo sapiens) (UniProt P06493+P24864) (P24864 whole entry, looked up): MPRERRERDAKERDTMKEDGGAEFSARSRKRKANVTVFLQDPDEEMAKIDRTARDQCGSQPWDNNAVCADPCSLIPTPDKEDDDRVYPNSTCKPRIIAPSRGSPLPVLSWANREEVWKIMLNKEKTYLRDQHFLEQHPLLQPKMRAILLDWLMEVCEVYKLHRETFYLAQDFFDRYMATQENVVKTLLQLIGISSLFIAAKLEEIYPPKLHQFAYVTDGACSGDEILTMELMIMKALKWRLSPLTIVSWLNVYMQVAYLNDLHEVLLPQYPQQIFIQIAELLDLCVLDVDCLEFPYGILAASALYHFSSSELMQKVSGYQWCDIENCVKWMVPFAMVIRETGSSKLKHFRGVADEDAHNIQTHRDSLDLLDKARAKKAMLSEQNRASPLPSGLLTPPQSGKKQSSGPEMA

% of activity [1]: 94%
% of activity [2]: 90%
% of activity [3]: 99%
IC50 [4]: 0.023 µM
IC50 [5]: 5.41 µM
IC50 [6]: > 10 µM
Structure (SMILES): Cn1cc(-c2ccc3occ(-c4cccc(-c5ccncc5)c4)c3n2)cn1

% of control [7]: 14%
% of inhibition [8]: 97.9%
% of control [9]: 6%
% of control [10]: 13%
% of control [11]: 4%
% of inhibition [12]: 38.6%
% of control [13]: 20%
% of inhibition [14]: 1.3%
% of inhibition [15]: 10%
% of control [16]: 24%
% of inhibition [17]: 11.1%
% of inhibition [18]: 48.4%
% of inhibition [19]: 16.8%
% of inhibition [20]: 6.3%
% of control [21]: 20%
% of inhibition [22]: 4.8%
% of inhibition [23]: 19.9%
% of inhibition [24]: 41.7%
% of inhibition [25]: 31%
% of inhibition [26]: 3%
% of inhibition [27]: 64.1%
% of inhibition [28]: 31.5%
% of control [29]: 30%
% of inhibition [30]: 8.2%
% of inhibition [31]: 16.6%
% of inhibition [32]: 3%
% of control [33]: 10%
% of inhibition [34]: 4.5%
% of inhibition [35]: 7.4%
% of control [36]: 3%
% of control [37]: 20%
% of inhibition [38]: 26.1%
Structure (SMILES): COc1cc(F)ccc1-c1ncnc(Nc2cccc(C[S@](C)(=N)=O)c2)n1
